# From patent US20230263863A1, “COMPOSITIONS HAVING NEUROREGENERATIVE APPLICATIONS” (GRIFOLS WORLDWIDE OPERATIONS LIMITED, priority 2020, published 2023)
# Counter-ions that a name gives are not always drawn.
# Assays:
# SH-SY5Y cells [1] = assay: Neurite outgrowth (Outgrowth Fold Change) in undifferentiated SH-SY5Y cells; format: cell-based, human; conditions: for neurite outgrowth / differentiation over the concentration range: DFO compared with ApoTf; for neurite outgrowth or differentiation: FIG. 5; for neurogenesis / differentiation (neurite outgrowth): all proteins 0.2 mg/mL
# Description: (§1) Undifferentiated SH-SY5Y cells were seeded into 96 well clear bottom plates in media containing 0.1% FBS. A serum-free base media was utilized as recommended by the supplier for SH-SY5Y cells (Sigma, Cat #94030304-1VL). Twenty-four hours after seeding cells, a 3× stock solution of ApoTf, final concentrations indicated on the x-axis, in serum free base media was added to the cells. ApoTf was obtained and purified from pooled human plasma and dosed at a final concentration of 0.2 mg/mL. Cells were allowed to differentiate for 6 days. Neurite growth was assessed by imaging and image analysis. At the time of analysis, a 10× solution of Tubulin Tracker (Molecular Probes, T34075) and Hoechst 33342 (Molecular Probes #H3570) nuclear stain was prepared.
# Briefly, Tubulin Tracker dissolved in DMSO was diluted 1:1 with Pluronic F-127 and further diluted into HBSS to generate a 10× solution. Hoechst 33342 was added to the HBSS-Tubulin Tracker solution at 10 μg/mL to generate a 10× nuclear stain. The 10× staining solution (10 μL) was added directly to treated assay wells and incubated at 37° C. for 30 minutes. Following incubation, 110 μL of 0.4% Trypan Blue was added directly to assay wells and imaged on a Molecular Devices Nano imaging instrument. Nine images/well were acquired in the blue (Nuclei) and green (Tubulin) fluorescent channels for each image.
# After obtaining images, the MetaExpress Neurite Outgrowth analysis module (Molecular Devices) was used to identify cells, cell bodies, and quantify neurites. The total number of neurite branches were divided by the total number of cells imaged to account for different numbers of cells in each test well. The Outgrowth Fold Change was determined by setting the untreated control cells to a value of 1 with all other treatments shown relative to untreated control.
# HIF-1α = conditions: undifferentiated SH-SY5Y; US2016008437; cited from earlier work
# SH-SY5Y cells [2] = assay: β-III-tubulin staining intensity in SH-SY5Y cells; format: cell-based, human; conditions: FIG. 1D
# Description: In this experiment, the SH-SY5Y cells were differentiated as described supra. At the time of analysis, cells were fixed with paraformaldehyde, stained for β-III-tubulin (R&D Systems, MAB1195), and imaged on a Molecular Devices Nano imaging instrument. Image analysis was performed by assessing the fluorescent intensity of cells stained with β-III-tubulin. Background from secondary antibody alone was subtracted from all values. Values are shown with standard deviations as “β-III-Tubulin Staining Intensity” for the indicated conditions.
# [3] = Iron saturation of transferrin samples by ICP-AES; format: physicochemical
# Description: Protein purity was determined by SDS-PAGE. Iron saturation levels were determined using ICP-AES in accordance with the procedures outlined in Manley et al., J Biol Inorg Chem (2009) 14:61-74, the contents of which are incorporated herein by reference.
# [4] = system: primary human brain cortex-derived neural progenitor cells; assay: Differentiation of primary human neural progenitor cells to neurons and astrocytes; format: cell-based; conditions: ApoTf 0.8 mg/mL, 72 hours
# Description: Neural progenitor cells maintained as neurospheres were obtained from Lonza (PT-2599). Cells were thawed from a frozen vial of neurospheres and cultured in Human NeuroCult™ NS-A Complete Proliferation media (Stemcell Technologies) for 2 weeks. Neurospheres were dissociated to single cells and plated in Laminin coated wells of assay plates. The neural progenitor cells were seeded in NeuroCult™ NS-A Basal media containing 1/10th concentration of the recommended proliferation supplements, in the absence or presence of ApoTf (0.8 mg/mL) for 72 hours. At the time of analysis, cells were fixed with paraformaldehyde, stained for β-III-tubulin (R&D Systems, MAB1195) and GFAP (Invitrogen, PA3-16727), and imaged on a Molecular Devices Nano imaging instrument. Image analysis was performed by assessing the relative numbers of cells staining positive for β-III-tubulin or GFAP. Values for the indicated conditions are shown with standard deviations as “% β-III-Tubulin Positive” cells (FIG. 2A) or “% GFAP Positive” cells (FIG. 2B).
# [5] = system: MPTP-induced Parkinson's Disease in mice; assay: Kinematic gait analysis in MPTP-induced Parkinson's Disease mice; format: in vivo, C57BI/6J mice; conditions: ApoTf 350 mg/kg i.p. once a day, days 1-7; analysis on day 7; n=15
# Description: Animal experiments were performed at Charles River Laboratories (Finland), as specified in the license authorized by the national Animal Experiment Board of Finland and according to the National Institutes of Health (Bethesda, Md., USA) guidelines for the care and use of laboratory animals. Eight to twelve-week-old, C57BI/6J mice were housed at a standard temperature (22±1° C.) and in a light-controlled environment (lights on from 7 am to 8 pm) with ad libitum access to food and water.
# Solutions of MPTP were prepared by dissolving MPTP hydrochloride in sterile saline at 2.42 mg/mL; corresponding to 2.0 mg/mL of active compound. To induce Parkinson's Disease, the MPTP was given by intraperitoneal injection twice a day at 20 mg/kg. […]
# The captured videos of each mouse were first converted to the software-readable format. […] Gait pattern and movement analysis assessed 100 different parameters, including but not limited to stride time, swing time during a stride, speed, step width, stance and interlimb coordination. The data was analysed by using principal component analysis (PCA). The overall gait analysis was based on the PCA of all parameters for each mouse, with the obtained value showing the overall differences, measured as a “distance”, between control mice and MPTP, or MPTP plus ApoTf mice. […]
# SH-SY5Y cells [6] = assay: Cell number / proliferation of SH-SY5Y cells; format: cell-based, human
# Description: as §1, with “ApoTf was obtained and purified from pooled human plasma and dosed at a final concentration of 0.2 mg/mL.” left out
# Briefly, Tubulin Tracker dissolved in DMSO was diluted 1:1 with Pluronic F-127 and further diluted into HBSS to generate a 10× solution. Hoechst 33342 was added to the HBSS-Tubulin Tracker solution at 10 μg/mL to generate a 10× nuclear stain. The 10× staining solution (10 μL) was added directly to treated assay wells and incubated at 37° C. for 30 minutes. […]
# After obtaining images, the MetaExpress Neurite Outgrowth analysis module (Molecular Devices) was used to identify cells, cell bodies, and quantify neurites. […] The Outgrowth Fold Change was determined by setting the untreated control cells to a value of 1 with all other treatments shown relative to untreated control.
# [7] = FIG. 1C, 0.1 mg/mL ApoTf vs untreated control
compound,measurement,setting,value
"CC(=O)N(O)CCCCCNC(=O)CCC(=O)N(O)CCCCCNC(=O)CCC(=O)N(O)CCCCCN [DFO, Deferoxamine mesylate, reference compound]",concentration of maximal neurite outgrowth,SH-SY5Y cells [1]; FIG. 3A,1 to 3 µM
same,neurite outgrowth / differentiation over the concentration range,SH-SY5Y cells [1]; FIG. 3A,little neurite formation beyond that concentration
"O=C(O)CNC(=O)c1c(O)c2ccccc2n(Cc2ccccc2)c1=O [IOX2, N-[[1,2-Dihydro-4-hydroxy-2-oxo-1-(phenylmethyl)-3-quinolinyl]carbonyl]-glycine, reference compound]",concentration inducing up-regulation of HIF-1α,HIF-1α,1 µM
same,neurite outgrowth or differentiation,SH-SY5Y cells [1]; 4 μM IOX2,no effect was observable
same,neurite outgrowth or differentiation,SH-SY5Y cells [1]; IOX2-treated cells,no neurite outgrowth or differentiation was observed
"C[C@@H](N)[C@H]1CC[C@H](C(=O)Nc2ccncc2)CC1.Cl.Cl [Y-27632, trans-4-[(1R)-1-Aminoethyl]-N-4-pyridinylcyclohexanecarboxamide dihydrochloride, reference compound]","neurogenic effect (neurite outgrowth), alone","SH-SY5Y cells [1]; FIG. 8, Y-27632 50 μM",strongly neurogenic
same,"neurogenic effect (neurite outgrowth), in the presence of ApoTf","SH-SY5Y cells [1]; FIG. 8, Y-27632 50 μM plus ApoTf 0.1 mg/mL",synergistic showing an effect beyond that exhibited by either molecule alone
"ApoTf: iron-free form of transferrin protein, purified from pooled human plasma",β-III-Tubulin Staining Intensity,SH-SY5Y cells [2],caused an increase in β-III-tubulin protein
same,Iron Saturation (%),[3],< 0.3%
same,neurite outgrowth,"SH-SY5Y cells [1]; FIG. 1A, ApoTf up to 0.8 mg/mL, 6 days",induce neurite outgrowth in a dose dependent manner
same,neurite/tubulin outgrowth (tubulin staining),SH-SY5Y cells [1]; [7],promoting induction of neurite/tubulin outgrowth
same,neurite outgrowth / differentiation over the concentration range,SH-SY5Y cells [1]; FIG. 3A,continues to increase differentiation even up to 9.9 μM
same,neurogenesis / differentiation (neurite outgrowth),SH-SY5Y cells [1]; FIG. 3B,did induce neurogenesis
same,"differentiation (neurite outgrowth), factor combined with ApoTf","SH-SY5Y cells [1]; FIGS. 7A-7D, ApoTf 0.1 mg/mL plus neurotrophic factor",synergistic effect with other neurotrophic factors and peptides
same,% β-III-tubulin positive cells (neurons),[4]; FIG. 2A,dramatically increases the percentage of cells differentiated to neurons
same,% GFAP positive cells (astrocytes),[4]; FIG. 2B,dramatically increases
same,"movement and gait (Distance from Control, PCA)",[5],significantly ameliorated
same,cell numbers (cell proliferation),"SH-SY5Y cells [6]; FIG. 1B, up to 0.8 mg/mL apo-transferrin",concentration dependent increase in cell numbers
same,cell proliferation (nuclear staining),SH-SY5Y cells [6]; [7],profound effect on promoting cell proliferation
"ApoTransferrin A: apo-transferrin sample, Grifols, prepared in house",Iron Saturation (%),[3],0.27%
"ApoTransferrin B: apo-transferrin sample, Grifols, prepared in house",Iron Saturation (%),[3],0.59%
"ApoTransferrin C: apo-transferrin sample, Grifols, prepared in house",Iron Saturation (%),[3],0.24%
"HoloTf: iron-saturated form of transferrin, purified from pooled human plasma [reference compound]",Iron Saturation (%),[3],100%
same,neurogenesis / differentiation (neurite outgrowth),SH-SY5Y cells [1]; FIG. 4,unable to induce differentiation
"recombinant ApoTf: recombinant wild-type human transferrin, SEQ ID NO: 1, expressed in 293-6E cells",neurogenesis / differentiation (neurite outgrowth),SH-SY5Y cells [1]; FIG. 3B,did induce neurogenesis
